Laboratory results: ChEMBL document CHEMBL1154398, “Synthesis and activity in enhancing long-term potentiation (LTP) of clausenamide stereoisomers” (2009)

What was measured:
Assay type in all cases: functional
[1] = Nootropic activity in hippocampus assessed as increase in amplitude of population spikes after 15 mins by long-term potentiation enhancement assay relative to control; set-up: concentration or dose not given beside the values
[2] = Nootropic activity in hippocampus assessed as increase in amplitude of population spikes after 30 mins by long-term potentiation enhancement assay relative to control; set-up: concentration or dose not given beside the values
[3] = Nootropic activity in hippocampus assessed as increase in amplitude of population spikes after 60 mins by long-term potentiation enhancement assay relative to control; set-up: concentration or dose not given beside the values
[4] = Nootropic activity in hippocampus assessed as increase in amplitude of population spikes for > 40 mins by long-term potentiation enhancement assay relative to control

Row | Compound | Activity [1] [%] | Activity [2] [%] | Activity [3] [%] | Activity [4] [%]
1 | CN1C(=O)[C@H](O)[C@@H](c2ccccc2)[C@H]1[C@@H](O)c1ccccc1 | 36 | 47.5 | 107.8 | >30
2 | CN1C(=O)[C@@H](O)[C@H](c2ccccc2)[C@H]1[C@H](O)c1ccccc1 | -18.2 | -34.5 | – | –
3 | CN1C(=O)[C@H](O)[C@H](c2ccccc2)[C@@H]1[C@@H](O)c1ccccc1 | 26.2 | 41.2 | 105.4 | >30
4 | CN1C(=O)[C@@H](O)[C@@H](c2ccccc2)[C@@H]1[C@@H](O)c1ccccc1 | -5.9 | -1.8 | -5.1 | –
5 | CN1C(=O)[C@H](O)[C@H](c2ccccc2)[C@H]1[C@@H](O)c1ccccc1 | -3 | 10.1 | 21.7 | –
6 | CN1C(=O)[C@H](O)[C@H](c2ccccc2)[C@@H]1[C@H](O)c1ccccc1 | 7.2 | 0.3 | 5.4 | –
7 | CN1C(=O)[C@@H](O)[C@@H](c2ccccc2)[C@H]1[C@@H](O)c1ccccc1 | 1.7 | 9.7 | 9.6 | –
8 | CN1C(=O)[C@H](O)[C@H](c2ccccc2)[C@H]1[C@H](O)c1ccccc1 | 35 | 50.9 | 92.3 | >30
9 | CN1C(=O)[C@@H](O)[C@H](c2ccccc2)[C@H]1[C@@H](O)c1ccccc1 | -9.4 | -8.1 | 18.2 | –
10 | CN1C(=O)[C@@H](O)[C@H](c2ccccc2)[C@@H]1[C@H](O)c1ccccc1 | -2.2 | -8.8 | 17.3 | –
11 | CN1C(=O)[C@@H](O)[C@@H](c2ccccc2)[C@@H]1[C@H](O)c1ccccc1 | -11.5 | -11.9 | -15.4 | –
12 | CN1C(=O)[C@@H](O)[C@H](c2ccccc2)[C@@H]1[C@@H](O)c1ccccc1 | 31.8 | 38.5 | 58.1 | –
13 | CN1C(=O)[C@H](O)[C@@H](c2ccccc2)[C@@H]1[C@H](O)c1ccccc1 | 4.7 | -5.3 | -9.4 | –
14 | CN1C(=O)[C@@H](O)[C@@H](c2ccccc2)[C@H]1[C@H](O)c1ccccc1 | -12.7 | 2.9 | 22.5 | –
15 | CN1C(=O)[C@H](O)[C@@H](c2ccccc2)[C@H]1[C@H](O)c1ccccc1 [(+)CLAUSENAMIDE] | -9.4 | 10.1 | 6.4 | –
16 | CN1C(=O)[C@H](O)[C@@H](c2ccccc2)[C@@H]1[C@@H](O)c1ccccc1 [(+)NEOCLAUSENAMIDE] | -0.7 | -29.1 | -2.5 | –
